From patent US20140121216A1, “INDOLEAMINE DERIVATIVES FOR THE TREATMENT OF CENTRAL NERVOUS SYSTEM DISEASES” (Adamed Sp. z o.o., priority 2011, published 2014)

Experiments:
[1] = target: T1, 5-HT2A (h), human recombinant (HEK-293 cells) (Homo sapiens, UniProt P28223); test: Cellular functional assay 5-HT2A (h) agonism; format: cell-based; settings: compound 1×10^−6 M; control 10 μM serotonin
T1 construct: expressed in transfected cells; host or cells: HEK-293 cells
Method: The results are expressed as a percent of control specific agonist response ((measured specific response/control specific agonist response)×100) obtained in the presence of tested compound.
The EC50 values (concentration producing a half-maximal specific response) and IC50 values (concentration causing a half-maximal inhibition of the control specific agonist response) were determined by non-linear regression analysis of the concentration-response curves generated with mean replicate values using Hill equation curve fitting (Y=D+[(A−D)/(1+(C/C50)nH)], where Y=specific response, D=minimum specific response, A=maximum specific response, C=compound concentration, and C50=EC50 or IC50, and nH=slope factor).
For the antagonists, the apparent dissociation constants (Kb) were calculated using the modified Cheng Prusoff equation (Kb=IC50/(1+(A/EC50A)), where A=concentration of reference agonist in the assay, and EC50A=EC50 value of the reference agonist).

[2] = target: 5-HT2A receptor, human recombinant (Homo sapiens, UniProt P28223); test: Binding assay, 5-HT2A receptor ([3H]ketanserin); parameters: purchased PerkinElmer; settings: read-out: Inhibition constant Ki 5-HT2A
5-HT2A receptor, human recombinant, sequence (P28223 whole entry): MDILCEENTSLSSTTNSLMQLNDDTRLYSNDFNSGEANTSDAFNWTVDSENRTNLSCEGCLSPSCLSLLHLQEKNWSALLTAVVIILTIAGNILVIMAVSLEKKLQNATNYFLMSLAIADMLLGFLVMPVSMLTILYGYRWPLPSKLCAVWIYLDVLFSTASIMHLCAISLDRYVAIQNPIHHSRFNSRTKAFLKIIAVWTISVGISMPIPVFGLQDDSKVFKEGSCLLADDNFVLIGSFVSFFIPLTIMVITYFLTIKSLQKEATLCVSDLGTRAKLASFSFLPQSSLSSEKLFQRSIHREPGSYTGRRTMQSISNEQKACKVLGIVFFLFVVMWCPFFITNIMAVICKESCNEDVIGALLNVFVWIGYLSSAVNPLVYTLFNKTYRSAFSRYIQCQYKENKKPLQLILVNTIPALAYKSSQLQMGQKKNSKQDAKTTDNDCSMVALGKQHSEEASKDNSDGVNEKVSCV
Method: (§1) Moreover, ability of the compounds of the invention to block potassium channel hERG was tested.
(§2) The specific ligand binding to the receptors is defined as the difference between the total binding and the non-specific binding determined in the presence of an excess of unlabelled ligand.
(§3) The inhibition constants (Ki) were calculated using the Cheng Prusoff equation (Ki=IC50/(1+(L/KD)), where L=concentration of radioligand in the assay, and KD=affinity of the radioligand for the receptor). A Scatchard plot is used to determine the Kd. The IC50 values (concentration causing a half-maximal inhibition of control specific binding) and Hill coefficients (nH) were determined by non-linear regression analysis of the competition curves generated with mean replicate values using Hill equation curve fitting (Y=D+[(A−D)/(1+(C/C50)^nH)], where Y=specific binding, D=minimum specific binding, A=maximum specific binding, C=compound concentration, C50=IC50, and nH=slope factor).

[3] = target: T2, 5-HT1A receptor (rat hippocampus) (Rattus norvegicus, UniProt P19327); test: Binding assay, 5-HT1A receptor ([3H]8-OH-DPAT); settings: read-out: Inhibition constant Ki 5-HT1A
T2 construct: hippocampus; from tissue; host or cells: rat hippocampus
T2 sequence (P19327 1-422): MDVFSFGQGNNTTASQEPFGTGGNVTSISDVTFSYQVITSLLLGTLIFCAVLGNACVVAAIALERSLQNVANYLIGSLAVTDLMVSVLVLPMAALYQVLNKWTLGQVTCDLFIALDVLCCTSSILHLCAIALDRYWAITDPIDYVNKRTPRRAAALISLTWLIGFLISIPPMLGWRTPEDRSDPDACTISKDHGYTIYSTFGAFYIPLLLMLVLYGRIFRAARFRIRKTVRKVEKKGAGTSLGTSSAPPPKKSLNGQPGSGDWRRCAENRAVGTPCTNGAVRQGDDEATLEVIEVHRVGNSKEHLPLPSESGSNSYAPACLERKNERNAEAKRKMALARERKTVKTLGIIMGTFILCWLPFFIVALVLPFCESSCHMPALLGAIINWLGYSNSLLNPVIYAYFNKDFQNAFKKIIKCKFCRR
Method: as §1, §2, §3

[4] = target: T3, 5-HT6 receptor, human recombinant (Homo sapiens, UniProt P50406); test: Binding assay, 5-HT6 receptor ([3H]LSD); settings: read-out: Inhibition constant Ki 5-HT6
T3 construct: purchased PerkinElmer
T3 sequence (P50406 whole entry): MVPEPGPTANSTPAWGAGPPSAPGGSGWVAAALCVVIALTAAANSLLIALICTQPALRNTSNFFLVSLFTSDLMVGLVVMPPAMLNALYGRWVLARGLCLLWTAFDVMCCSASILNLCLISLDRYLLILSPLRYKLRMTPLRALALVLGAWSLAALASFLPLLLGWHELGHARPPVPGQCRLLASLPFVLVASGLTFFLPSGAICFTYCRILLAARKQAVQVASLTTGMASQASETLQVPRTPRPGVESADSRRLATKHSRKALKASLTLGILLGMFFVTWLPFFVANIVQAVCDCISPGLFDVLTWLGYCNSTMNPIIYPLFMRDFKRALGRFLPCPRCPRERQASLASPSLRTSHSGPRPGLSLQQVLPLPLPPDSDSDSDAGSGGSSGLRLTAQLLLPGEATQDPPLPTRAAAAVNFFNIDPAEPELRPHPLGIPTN
Method: as §1, §2, §3

[5] = target: T4, D2 receptor, human recombinant (GeneBLAzer D2-Gqo5 CHO-K1 DA) (Homo sapiens, UniProt P14416); test: Binding assay, dopaminergic D2 receptor ([3H]methylspiperone); settings: read-out: Inhibition constant Ki D2
T4 construct: purchased Invitrogen; host or cells: CHO-K1 (GeneBLAzer D2-Gqo5 CHO-K1 DA)
T4 sequence (P14416 whole entry): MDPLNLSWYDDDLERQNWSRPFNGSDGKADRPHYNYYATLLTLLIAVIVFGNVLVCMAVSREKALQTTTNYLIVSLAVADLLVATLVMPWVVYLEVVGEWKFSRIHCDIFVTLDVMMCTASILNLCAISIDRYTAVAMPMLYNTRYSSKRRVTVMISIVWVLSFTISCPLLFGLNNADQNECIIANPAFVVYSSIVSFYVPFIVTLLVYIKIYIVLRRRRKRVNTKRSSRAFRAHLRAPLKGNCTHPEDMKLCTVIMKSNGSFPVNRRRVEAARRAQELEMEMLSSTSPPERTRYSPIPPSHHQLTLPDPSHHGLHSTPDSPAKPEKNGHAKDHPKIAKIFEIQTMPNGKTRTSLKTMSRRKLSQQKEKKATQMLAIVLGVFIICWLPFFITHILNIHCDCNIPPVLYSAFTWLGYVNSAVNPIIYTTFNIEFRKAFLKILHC
Method: as §1, §2, §3

[6] = tested on: α1 adrenergic receptors (rat cerebral cortex); test: Binding assay, α1 adrenergic receptor ([3H]prazosin); settings: for α1 [%] affinity test result: compound 1×10^−6 M; for Ki: read-out: Inhibition constant Ki α1
Method: as §2
as §3, with “factor). This analysis was performed using a software developed at Cerep (Hill software) and validated by comparison with data generated by the commercial software SigmaPlot® 4.0 for Windows® (©1997 by SPSS Inc.).” for “factor).”
Experimental conditions for tests are given in Table 7, and results of tests for representative compounds are given in Tables 8a and 8b (α1 receptors) and in Tables 9a and 9b (α2C receptors).

[7] = target: T5, hERG potassium channels (KCNH2 gene, expressed in CHO cells) (Homo sapiens, UniProt Q12809); test: Ability to block hERG potassium channel, electrophysiology (IonWorks Quattro); format: cell-based; settings: for hERG [%] (% block of hERG current): compound 1×10^−5 M; for Ki: read-out: Inhibition constants Ki for hERG potassium channels (column head H1 [nM])
T5 construct: expressed in transfected cells; host or cells: CHO cells
T5 sequence (Q12809 whole entry): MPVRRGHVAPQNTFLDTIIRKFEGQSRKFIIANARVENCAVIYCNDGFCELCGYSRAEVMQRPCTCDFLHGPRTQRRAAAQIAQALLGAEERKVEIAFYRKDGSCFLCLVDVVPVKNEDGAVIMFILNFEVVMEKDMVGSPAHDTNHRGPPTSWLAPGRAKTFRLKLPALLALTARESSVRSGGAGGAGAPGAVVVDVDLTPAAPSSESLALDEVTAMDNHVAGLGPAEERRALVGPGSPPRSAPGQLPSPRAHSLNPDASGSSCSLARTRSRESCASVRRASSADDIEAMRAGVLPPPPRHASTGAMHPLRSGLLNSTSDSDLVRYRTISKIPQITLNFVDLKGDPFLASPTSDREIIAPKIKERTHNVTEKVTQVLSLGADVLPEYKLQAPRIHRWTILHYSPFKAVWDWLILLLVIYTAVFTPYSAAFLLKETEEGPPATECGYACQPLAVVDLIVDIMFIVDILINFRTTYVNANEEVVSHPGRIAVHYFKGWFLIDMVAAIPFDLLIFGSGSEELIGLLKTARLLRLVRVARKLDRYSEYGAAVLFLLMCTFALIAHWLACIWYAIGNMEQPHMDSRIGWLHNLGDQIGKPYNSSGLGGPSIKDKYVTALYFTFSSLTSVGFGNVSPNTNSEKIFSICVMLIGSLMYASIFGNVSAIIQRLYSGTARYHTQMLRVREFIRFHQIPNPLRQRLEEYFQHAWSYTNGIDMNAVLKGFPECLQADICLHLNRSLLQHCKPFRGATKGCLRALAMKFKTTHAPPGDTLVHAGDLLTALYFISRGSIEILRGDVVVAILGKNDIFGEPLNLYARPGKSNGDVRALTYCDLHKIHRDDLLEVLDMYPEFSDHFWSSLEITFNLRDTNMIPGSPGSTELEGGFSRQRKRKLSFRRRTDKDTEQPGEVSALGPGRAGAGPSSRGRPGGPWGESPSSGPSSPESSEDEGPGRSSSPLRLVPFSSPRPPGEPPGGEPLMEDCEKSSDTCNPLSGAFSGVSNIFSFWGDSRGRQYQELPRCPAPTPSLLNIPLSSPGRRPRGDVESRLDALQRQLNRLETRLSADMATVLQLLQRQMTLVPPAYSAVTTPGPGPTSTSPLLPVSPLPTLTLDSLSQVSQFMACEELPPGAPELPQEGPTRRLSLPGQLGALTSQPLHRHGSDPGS
Method: Ability to block hERG potassium channels was determined using the electrophysiological method and cloned hERG potassium channels (KCNH2 gene, expressed in CHO cells) as biological material. The effects were evaluated using IonWorks™ Quattro system (MDS-AT).
hERG current was elicited using a pulse pattern with fixed amplitudes (conditioning prepulse: −80 mV for 25 ms; test pulse: +40 mV for 80 ms) from a holding potential of 0 mV. hERG current was measured as a difference between the peak current at 1 ms after the test step to +40 mV and the steady-state current at the end of the step to +40 mV.
Data acquisition and analyses were performed using the IonWorks Quattro™ system operation software (version 2.0.2; Molecular Devices Corporation, Union City, Calif.). Data were corrected for leak current.
The hERG block was calculated as: % Block=(1−ITA/IControl)×100%, where IControl and ITA were the currents elicited by the test pulse in control and in the presence of a test compound, respectively.

[8] = tested on: σ receptors (rat cerebral cortex); test: Binding assay, σ receptors ([3H]DTG); settings: compound 1×10^−6 M
Method: as §1, §2
as §3, with “factor). This analysis was performed using a software developed at Cerep (Hill software) and validated by comparison with data generated by the commercial software SigmaPlot® 4.0 for Windows® (©1997 by SPSS Inc.).” for “factor).”
Experimental conditions for tests are given in Table 14, and results of tests for representative compounds are given in Table 15a and 15b.

[9] = target: T6, human recombinant D3 receptors (Homo sapiens, UniProt P35462); test: Binding assay, dopaminergic D3 receptor ([3H]methylspiperone); settings: read-out: Inhibition constant Ki D3
T6 construct: purchased PerkinElmer
T6 sequence (P35462 whole entry): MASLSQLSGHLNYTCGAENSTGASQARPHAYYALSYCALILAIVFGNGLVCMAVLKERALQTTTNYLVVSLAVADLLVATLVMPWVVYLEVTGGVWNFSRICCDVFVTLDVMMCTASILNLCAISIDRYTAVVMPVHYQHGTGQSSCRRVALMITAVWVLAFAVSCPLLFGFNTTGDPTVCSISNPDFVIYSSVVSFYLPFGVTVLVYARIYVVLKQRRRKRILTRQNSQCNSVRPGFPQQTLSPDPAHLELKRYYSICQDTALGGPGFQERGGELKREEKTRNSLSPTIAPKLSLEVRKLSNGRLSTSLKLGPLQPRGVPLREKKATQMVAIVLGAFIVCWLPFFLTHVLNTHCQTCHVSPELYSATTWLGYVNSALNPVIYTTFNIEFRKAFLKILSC
Method: as §1, §2, §3

T1 sequence (P28223 whole entry): as the sequence (P28223 whole entry) above

SMILES	5-HT2A-ag [%] [1] [%]	Ki [2] [nM]	Ki [3] [nM]	Ki [4] [nM]	Ki [5] [nM]	α1 [%] affinity test result [6] [%]	hERG [%] (% block of hERG current) [7]	σ [%] affinity test result [8] [%]	Ki [6] [nM]	Ki [9] [nM]	Ki [7] [nM]
NC(=O)c1ccccc1OCCCN1CCN(c2cccc3c2ccn3S(=O)(=O)c2ccccc2)CC1 [Compound 72, 2-[3-[4-[1-(Benzenesulfonyl)indol-4-yl]piperazin-1-yl]propoxy]-benzamide]	2	18	3.9	0.31	3.2						
O=C1CCc2ccc(OCCCCN3CCN(c4cccc5c4ccn5Cc4cccc(F)c4)CC3)cc2N1 [Compound 63, 7-[4-[4-[1-[(3-Fluorophenyl)methyl]indol-4-yl]piperazin-1-yl]butoxy]-3,4-dihydro-1H-quinolin-2-one]	6					86					
O=C1CCc2ccc(OCCCCN3CCN(c4cccc5c4ccn5Cc4cccc(Cl)c4)CC3)cc2N1 [Compound 67, 7-[4-[4-[1-[(3-Chlorophenyl)methyl]indol-4-yl]piperazin-1-yl]butoxy]-3,4-dihydro-1H-quinolin-2-one]	4		7								
O=C1CCc2ccc(OCCCN3CCN(c4cccc5c4ccn5Cc4ccccc4)CC3)cc2N1 [Compound 4, 7-[3-[4-(1-Benzylindol-4-yl)piperazin-1-yl]propoxy]-3,4-dihydro-1H-quinolin-2-one]	2					68	27	45			
O=C1CCc2ccc(OCCCN3CCN(c4cccc5c4ccn5S(=O)(=O)c4ccccc4)CC3)cc2N1 [Compound 23, 7-[3-[4-[1-(Benzensulphonyl)indol-4-yl]piperazin-1-yl]propoxy]-3,4-dihydro-1H-quinolin-2-one]		170	6.2	2.1	32	55	7	13	290	3.4	> 10000
O=C1CCc2ccc(OCCCCN3CCN(c4cccc5c4ccn5Cc4ccccc4)CC3)cc2N1 [Compound 5, 7-(4-(4-(1-Benzyl-1H-indol-4-yl)piperazin-1-yl)butoxy)-3,4-dihydroquinolin-2(1H)-one]	8					88	30	52			
O=C1CCc2ccc(OCCCCN3CCN(c4cccc5c4ccn5S(=O)(=O)c4ccccc4)CC3)cc2N1 [Compound 24, 7-(4-(4-(1-(Phenylsulphonyl)-1H-indol-4-yl)piperazin-1-yl)butoxy)-3,4-dihydroquinolin-2(1H)-one]		3.2	1.2	0.35	1.3	92	9	57	22	0.81	> 10000
